Reference: PubChem BioAssay AID256 (DTP/NCI, 2004)
Inconclusive results and toxic doses are left out. Rule for the calls: active = survival T/C of 150% or more; inactive = T/C below 125% in these data.

Test system: CD2F1 mice, L1210 leukemia ip, survival T/C
Test: NCI In Vivo Anticancer Drug Screen. Data for tumor model L1210 Leukemia (intraperitoneal) in CD2F1 (CDF1) mice
Details: endpoint: mean survival time, higher = longer survival
Outline: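 Ratio T/C, where T is the treated-group value and C the vehicle-dosed control value, from mice implanted with a transplantable tumor.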

Measured: T/C

COC(=O)C(N)CCCCNc1ccc2c(cc1=O)C(NC(C)=O)CCc1cc(OC)c(OC)c(OC)c1-2 (configuration not stated)
inactive: dose: 3.1 mg/kg/injection, schedule: Q03HX008 (ip), vehicle: saline 105 % of control | dose: 3.1 mg/kg/injection, schedule: Q03HX016 (ip), vehicle: saline 91 % of control | dose: 3.1 mg/kg/injection, schedule: Q03HX024 (ip), vehicle: saline 96 % of control | dose: 6.3 mg/kg/injection, schedule: Q03HX008 (ip), vehicle: saline 92 % of control | dose: 6.3 mg/kg/injection, schedule: Q03HX016 (ip), vehicle: saline 103 % of control | dose: 6.3 mg/kg/injection, schedule: Q03HX024 (ip), vehicle: saline 102 % of control | dose: 12.5 mg/kg/injection, schedule: Q01DX009 (ip), vehicle: saline 91 % of control | dose: 12.5 mg/kg/injection, schedule: Q01DX009 (sc), vehicle: saline 88 % of control | dose: 12.5 mg/kg/injection, schedule: Q03HX008 (ip), vehicle: saline 97 % of control | dose: 12.5 mg/kg/injection, schedule: Q03HX016 (ip), vehicle: saline 97 % of control | dose: 12.5 mg/kg/injection, schedule: Q03HX024 (ip), vehicle: saline 107 % of control | dose: 25.0 mg/kg/injection, schedule: Q01DX001 (ip), vehicle: saline 102 % of control | dose: 25.0 mg/kg/injection, schedule: Q01DX001 (oral), vehicle: saline 100 % of control | dose: 25.0 mg/kg/injection, schedule: Q01DX001 (sc), vehicle: saline 88 % of control | dose: 25.0 mg/kg/injection, schedule: Q01DX009 (ip), vehicle: saline 100 % of control | dose: 25.0 mg/kg/injection, schedule: Q01DX009 (oral), vehicle: saline 96 % of control | dose: 25.0 mg/kg/injection, schedule: Q01DX009 (sc), vehicle: saline 91 % of control | dose: 25.0 mg/kg/injection, schedule: Q03HX008 (ip), vehicle: saline 105 % of control | dose: 25.0 mg/kg/injection, schedule: Q03HX016 (ip), vehicle: saline 94 % of control | dose: 25.0 mg/kg/injection, schedule: Q03HX024 (ip), vehicle: saline 108 % of control | dose: 25.0 mg/kg/injection, schedule: Q04DX003 (ip), vehicle: saline 100 % of control | dose: 25.0 mg/kg/injection, schedule: Q08DX002 (ip), vehicle: saline 91 % of control | dose: 50.0 mg/kg/injection, schedule: Q01DX001 (ip), vehicle: saline 94 % of control | dose: 50.0 mg/kg/injection, schedule: Q01DX001 (oral), vehicle: saline 94 % of control | dose: 50.0 mg/kg/injection, schedule: Q01DX001 (sc), vehicle: saline 92 % of control | dose: 50.0 mg/kg/injection, schedule: Q01DX009 (ip), vehicle: saline 103 % of control | dose: 50.0 mg/kg/injection, schedule: Q01DX009 (oral), vehicle: saline 91 % of control | dose: 50.0 mg/kg/injection, schedule: Q01DX009 (sc), vehicle: saline 91 % of control | dose: 50.0 mg/kg/injection, schedule: Q03HX008 (ip), vehicle: saline 107 % of control | dose: 50.0 mg/kg/injection, schedule: Q03HX016 (ip), vehicle: saline 97 % of control | dose: 50.0 mg/kg/injection, schedule: Q03HX024 (ip), vehicle: saline 111 % of control | dose: 50.0 mg/kg/injection, schedule: Q04DX003 (ip), vehicle: saline 92 % of control | dose: 50.0 mg/kg/injection, schedule: Q08DX002 (ip), vehicle: saline 103 % of control | dose: 53.0 mg/kg/injection, schedule: Q01DX005 (ip), vehicle: saline 108 % of control | dose: 53.0 mg/kg/injection, schedule: Q01DX009 (ip), vehicle: saline 107 % of control | dose: 53.0 mg/kg/injection, schedule: Q04DX003 (ip), vehicle: saline 87 % of control | dose: 80.0 mg/kg/injection, schedule: Q01DX005 (ip), vehicle: saline 114 % of control | dose: 80.0 mg/kg/injection, schedule: Q01DX009 (ip), vehicle: saline 110 % of control | dose: 80.0 mg/kg/injection, schedule: Q04DX003 (ip), vehicle: saline 87 % of control | dose: 100.0 mg/kg/injection, schedule: Q01DX001 (ip), vehicle: saline with Tween-80 106 % of control | dose: 100.0 mg/kg/injection, schedule: Q01DX001 (ip), vehicle: saline 88 % of control | dose: 100.0 mg/kg/injection, schedule: Q01DX001 (oral), vehicle: saline 96 % of control | dose: 100.0 mg/kg/injection, schedule: Q01DX001 (sc), vehicle: saline 92 % of control | dose: 100.0 mg/kg/injection, schedule: Q01DX009 (ip), vehicle: saline 114 % of control | dose: 100.0 mg/kg/injection, schedule: Q01DX009 (oral), vehicle: saline 91 % of control | dose: 100.0 mg/kg/injection, schedule: Q01DX009 (sc), vehicle: saline 92 % of control | dose: 100.0 mg/kg/injection, schedule: Q04DX002 (ip), vehicle: saline 108 % of control | dose: 100.0 mg/kg/injection, schedule: Q04DX003 (ip), vehicle: saline 91 % of control | dose: 100.0 mg/kg/injection, schedule: Q08DX002 (ip), vehicle: saline 100 % of control | dose: 120.0 mg/kg/injection, schedule: Q01DX005 (ip), vehicle: saline 118 % of control | dose: 120.0 mg/kg/injection, schedule: Q01DX009 (ip), vehicle: saline 114 % of control | dose: 120.0 mg/kg/injection, schedule: Q04DX003 (ip), vehicle: saline 98 % of control | dose: 180.0 mg/kg/injection, schedule: Q01DX005 (ip), vehicle: saline 118 % of control | dose: 180.0 mg/kg/injection, schedule: Q01DX009 (ip), vehicle: saline 105 % of control | dose: 180.0 mg/kg/injection, schedule: Q04DX003 (ip), vehicle: saline 96 % of control | dose: 200.0 mg/kg/injection, schedule: Q01DX001 (ip), vehicle: saline with Tween-80 106 % of control | dose: 200.0 mg/kg/injection, schedule: Q01DX001 (ip), vehicle: saline 97 % of control | dose: 200.0 mg/kg/injection, schedule: Q01DX001 (oral), vehicle: saline 94 % of control | dose: 200.0 mg/kg/injection, schedule: Q01DX001 (sc), vehicle: saline 97 % of control | dose: 200.0 mg/kg/injection, schedule: Q01DX009 (ip), vehicle: saline 118 % of control | dose: 200.0 mg/kg/injection, schedule: Q01DX009 (oral), vehicle: saline 96 % of control | dose: 200.0 mg/kg/injection, schedule: Q01DX009 (sc), vehicle: saline 94 % of control | dose: 200.0 mg/kg/injection, schedule: Q04DX002 (ip), vehicle: saline 104 % of control | dose: 200.0 mg/kg/injection, schedule: Q04DX003 (ip), vehicle: saline 103 % of control | dose: 200.0 mg/kg/injection, schedule: Q08DX002 (ip), vehicle: saline 111 % of control | dose: 270.0 mg/kg/injection, schedule: Q01DX005 (ip), vehicle: saline 90 % of control | dose: 270.0 mg/kg/injection, schedule: Q04DX003 (ip), vehicle: saline 98 % of control | dose: 400.0 mg/kg/injection, schedule: Q01DX001 (ip), vehicle: saline with Tween-80 107 % of control | dose: 400.0 mg/kg/injection, schedule: Q01DX001 (ip), vehicle: saline 108 % of control | dose: 400.0 mg/kg/injection, schedule: Q01DX001 (oral), vehicle: saline 96 % of control | dose: 400.0 mg/kg/injection, schedule: Q01DX001 (sc), vehicle: saline 100 % of control | dose: 400.0 mg/kg/injection, schedule: Q04DX003 (ip), vehicle: saline 113 % of control | dose: 400.0 mg/kg/injection, schedule: Q08DX002 (ip), vehicle: saline 113 % of control | dose: 800.0 mg/kg/injection, schedule: Q01DX001 (oral), vehicle: saline 94 % of control

CC(C)=CC1CC(C)C2(CCC3(C)CC4C(C(=O)CC4(C)O)/C(C=O)=C\CC32)O1 (configuration not stated)
inactive: dose: 2.5 mg/kg/injection, schedule: Q01DX009 (ip), vehicle: saline with Tween-80 97 % of control | dose: 5.0 mg/kg/injection, schedule: Q01DX009 (ip), vehicle: saline with Tween-80 94 % of control | dose: 10.0 mg/kg/injection, schedule: Q01DX009 (ip), vehicle: saline with Tween-80 97 % of control
